Measured values from ChEMBL document CHEMBL5154842, “Unique Carbazole-Oxadiazole Derivatives as New Potential Antibiotics for Combating Gram-Positive and -Negative Bacteria” (J Med Chem, 2022).
In brackets after ≈: the same amount, converted by molar mass. Activity calls are given as the source filed them. No cut-off for these calls is given here.

What was measured:
Staphylococcus aureus [1] = test: Antibacterial activity against methicillin-resistant Staphylococcus aureus N315 assessed as inhibition of bacterial growth at 0.5 to 16 ug/ml measured after 24 hrs by microplate reader assay; type: functional, organism-based; details: dose 0.5-16 µg/ml
Staphylococcus aureus [2] = test: Antibacterial activity against methicillin-resistant Staphylococcus aureus N315 assessed as inhibition of bacterial growth incubated for 24 hrs by CLSI protocol based two fold serial dilution method; type: functional
Klebsiella pneumoniae = test: Antibacterial activity against Klebsiella pneumonia assessed as inhibition of bacterial growth incubated for 24 hrs by CLSI protocol based two fold serial dilution method; type: functional
Staphylococcus aureus [3] = test: Antibacterial activity against Staphylococcus aureus assessed as inhibition of bacterial growth incubated for 24 hrs by CLSI protocol based two fold serial dilution method; type: functional
Staphylococcus aureus [4] = test: Antibacterial activity against methicillin-resistant Staphylococcus aureus N315 assessed as inhibition of bacterial growth at 0.25 to 64 ug/ml incubated for 24 hrs by Alamar blue assay; type: functional, organism-based; details: dose 0.25-64 µg/ml
Acinetobacter baumannii = test: Antibacterial activity against Acinetobacter baumannii assessed as inhibition of bacterial growth incubated for 24 hrs by CLSI protocol based two fold serial dilution method; type: functional
Escherichia coli [5] = test: Antibacterial activity against Escherichia coli assessed as inhibition of bacterial growth incubated for 24 hrs by CLSI protocol based two fold serial dilution method; type: functional
Escherichia coli [6] = test: Antibacterial activity against Escherichia coli 25922 assessed as inhibition of bacterial growth incubated for 24 hrs by CLSI protocol based two fold serial dilution method; type: functional
Pseudomonas aeruginosa [7] = test: Antibacterial activity against Pseudomonas aeruginosa ATCC 27853 assessed as inhibition of bacterial growth incubated for 24 hrs by CLSI protocol based two fold serial dilution method; type: functional
Pseudomonas aeruginosa [8] = test: Antibacterial activity against Pseudomonas aeruginosa assessed as inhibition of bacterial growth incubated for 24 hrs by CLSI protocol based two fold serial dilution method; type: functional
Enterococcus faecalis = test: Antibacterial activity against Enterococcus faecalis assessed as inhibition of bacterial growth incubated for 24 hrs by CLSI protocol based two fold serial dilution method; type: functional
[9] = Hemolytic activity in human RBC assessed as hemolysis at 1 to 32 ug/ml measured after 60 mins by microplate reader assay relative to control; type: toxicity, cell-based, Erythrocyte; details: red blood cells (erythrocytes), at 1 to 32 µg/mL, dose 1-32 µg/ml, read-out: Activity
Staphylococcus aureus [10] = test: Antibacterial activity against Staphylococcus aureus 25923 assessed as inhibition of bacterial growth incubated for 24 hrs by CLSI protocol based two fold serial dilution method; type: functional
Staphylococcus aureus [11] = test: Antibacterial activity against methicillin-resistant Staphylococcus aureus N315 assessed as change in susceptibility at sub-MIC treated over 9 serial passages measured after 9 days by resistance development assay; type: functional, organism-based; details: time 9.0 day
Staphylococcus aureus [12] = test: Antibacterial activity against Staphylococcus aureus 29213 assessed as inhibition of bacterial growth incubated for 24 hrs by CLSI protocol based two fold serial dilution method; type: functional
Pseudomonas aeruginosa [13] = test: Antibacterial activity against Pseudomonas aeruginosa ATCC 27853 assessed as change in susceptibility at sub-MIC treated over 9 serial passages measured after 9 days by resistance development assay; type: functional, organism-based; details: time 9.0 day
Cell membrane [14] = test: Induction of inner membrane permeabilization in methicillin-resistant Staphylococcus aureus N315 assessed as increase in PI uptake by measuring increase in fluorescence intensity at 1 to 8 ug/ml incubated for 30 mins by calcein-AM/PI staining based fluorescence microscopic analysis; details: dose 1-8 µg/ml, DDE = dose-dependent effect
Staphylococcus aureus [15] = test: Antibacterial activity against methicillin-resistant Staphylococcus aureus N315 assessed as increase in germicidal effect at 0.5 ug/ml measured after 7 hrs by microplate reader assay; type: functional, organism-based; details: dose 0.5 µg/ml
Cell membrane [16] = test: Induction of cell membrane disruption in methicillin-resistant Staphylococcus aureus N315 assessed as increase in protein leakage at 0.5 to 6 ug/ml incubated under agitation condition by Bradford assay; details: dose 0.5-6 µg/ml
Cell membrane [17] = test: Induction of cell membrane disruption in methicillin-resistant Staphylococcus aureus N315 assessed as increase in nucleotides leakage at 0.5 to 6 ug/ml incubated under agitation condition by UV absorption based analysis; type: subcellular; details: dose 0.5-6 µg/ml
Cell membrane [18] = test: Induction of cell membrane disruption in Pseudomonas aeruginosa ATCC 27853 assessed as increase in protein leakage at 0.5 to 6 ug/ml incubated under agitation condition by Bradford assay; details: dose 0.5-6 µg/ml
Cell membrane [19] = test: Induction of inner membrane permeabilization in Pseudomonas aeruginosa ATCC 27853 assessed as increase in PI uptake by measuring increase in fluorescence intensity at 1 to 8 ug/ml incubated for 30 mins by calcein-AM/PI staining based fluorescence microscopic analysis; details: dose 1-8 µg/ml
HEK-293T = test: Cytotoxicity against human HEK293T cells assessed as cell viability at 0.5 to 64 ug/ml incubated for 24 hrs by MTT assay; type: toxicity, cell-based; details: dose 0.5-64 µg/ml
HeLa = test: Cytotoxicity against human HeLa cells assessed as cell viability at 0.5 to 64 ug/ml incubated for 24 hrs by MTT assay; type: toxicity, cell-based; details: dose 0.5-64 µg/ml
Cell membrane [20] = test: Induction of outer membrane permeabilization in Pseudomonas aeruginosa ATCC 27853 assessed as increase in NPN uptake by measuring increase in fluorescence intensity at 1 ug/ml by NPN-dye based fluorescence analysis; details: dose 1.0 µg/ml
Cell membrane [21] = test: Induction of cell membrane disruption in Pseudomonas aeruginosa ATCC 27853 assessed as increase in nucleotides leakage at 0.5 to 6 ug/ml incubated under agitation condition by UV absorption based analysis; type: subcellular; details: dose 0.5-6 µg/ml

| Compound | Activity (Staphylococcus aureus [1]) | MIC (Staphylococcus aureus [2]) | MIC (Klebsiella pneumoniae) | MIC (Staphylococcus aureus [3]) | Activity (Staphylococcus aureus [4]) | MIC (Acinetobacter baumannii) | MIC (Escherichia coli [5]) | MIC (Escherichia coli [6]) | MIC (Pseudomonas aeruginosa [7]) | MIC (Pseudomonas aeruginosa [8]) | MIC (Enterococcus faecalis) | hemolysis at 1 h [9] | MIC (Staphylococcus aureus [10]) | Activity (Staphylococcus aureus [11]) | MIC (Staphylococcus aureus [12]) | Activity (Pseudomonas aeruginosa [13]) | other results |
| --- | --- | --- | --- | --- | --- | --- | --- | --- | --- | --- | --- | --- | --- | --- | --- | --- | --- |
| Sc1nnc(Cn2c3ccccc3c3c(OCC4CCCC4)cccc32)o1 | Active | 2 µg/mL (≈ 5.27 µM) | 4 µg/mL (≈ 10.5 µM) | 256 µg/mL (≈ 675 µM) | Active | 2 µg/mL (≈ 5.27 µM) | 4 µg/mL (≈ 10.5 µM) | 1 µg/mL (≈ 2.64 µM) | 4 µg/mL (≈ 10.5 µM) | 256 µg/mL (≈ 675 µM) | 1 µg/mL (≈ 2.64 µM) | < 3% | 4 µg/mL (≈ 10.5 µM) | Active | 0.25 µg/mL (≈ 0.659 µM) |  |  |
| Sc1nnc(COc2cccc3c2c2ccccc2n3CC2CCCCC2)o1 |  | 0.5 µg/mL (≈ 1.27 µM) | 2 µg/mL (≈ 5.08 µM) | 256 µg/mL (≈ 651 µM) |  | 4 µg/mL (≈ 10.2 µM) | 4 µg/mL (≈ 10.2 µM) | 2 µg/mL (≈ 5.08 µM) | 1 µg/mL (≈ 2.54 µM) | 256 µg/mL (≈ 651 µM) | 4 µg/mL (≈ 10.2 µM) |  | 8 µg/mL (≈ 20.3 µM) | Active | 16 µg/mL (≈ 40.7 µM) | Active |  |
| Sc1nnc(Cn2c3ccccc3c3c(OCC4CC4)cccc32)o1 | Active | 0.5 µg/mL (≈ 1.42 µM) | 4 µg/mL (≈ 11.4 µM) | 256 µg/mL (≈ 728 µM) | Active | 4 µg/mL (≈ 11.4 µM) | 2 µg/mL (≈ 5.69 µM) | 1 µg/mL (≈ 2.85 µM) | 4 µg/mL (≈ 11.4 µM) | 256 µg/mL (≈ 728 µM) | 2 µg/mL (≈ 5.69 µM) | < 3% | 4 µg/mL (≈ 11.4 µM) | Active | 1 µg/mL (≈ 2.85 µM) |  | Activity (Cell membrane [14]): Dde; Activity (Staphylococcus aureus [15]): Active; Activity (Cell membrane [16]): Active; Activity (Cell membrane [17]): Active |
| CCn1c2ccccc2c2c(OCc3nnn[nH]3)cccc21 | Active | 2 µg/mL (≈ 6.82 µM) | 64 µg/mL (≈ 218 µM) | 128 µg/mL (≈ 436 µM) | Active | 64 µg/mL (≈ 218 µM) | 8 µg/mL (≈ 27.3 µM) | 64 µg/mL (≈ 218 µM) | 1 µg/mL (≈ 3.41 µM) | 256 µg/mL (≈ 873 µM) | 4 µg/mL (≈ 13.6 µM) | < 3% | 32 µg/mL (≈ 109 µM) |  | 32 µg/mL (≈ 109 µM) |  | Activity (Cell membrane [18]): Active; Activity (Cell membrane [19]): Active; Activity (HEK-293T): Non-Toxic; Activity (HeLa): Non-Toxic; Activity (Cell membrane [20]): Active; Activity (Cell membrane [21]): Active |
| Sc1nnc(COc2cccc3c2c2ccccc2n3CC2CC2)o1 |  | 0.5 µg/mL (≈ 1.42 µM) | 4 µg/mL (≈ 11.4 µM) | 256 µg/mL (≈ 728 µM) |  | 16 µg/mL (≈ 45.5 µM) | 4 µg/mL (≈ 11.4 µM) | 1 µg/mL (≈ 2.85 µM) | 1 µg/mL (≈ 2.85 µM) | 256 µg/mL (≈ 728 µM) | 8 µg/mL (≈ 22.8 µM) |  | 4 µg/mL (≈ 11.4 µM) | Active | 8 µg/mL (≈ 22.8 µM) | Active |  |
| Sc1nnc(COc2cccc3c2c2ccccc2n3CC2CCCC2)o1 |  | 0.25 µg/mL (≈ 0.659 µM) | 1 µg/mL (≈ 2.64 µM) | 256 µg/mL (≈ 675 µM) |  | 1 µg/mL (≈ 2.64 µM) | 1 µg/mL (≈ 2.64 µM) | 2 µg/mL (≈ 5.27 µM) | 0.25 µg/mL (≈ 0.659 µM) | 256 µg/mL (≈ 675 µM) | 2 µg/mL (≈ 5.27 µM) |  | 1 µg/mL (≈ 2.64 µM) | Active | 8 µg/mL (≈ 21.1 µM) | Active |  |
| CCOc1cccc2c1c1ccccc1n2Cc1nnc(S)o1 | Active | 1 µg/mL (≈ 3.07 µM) | 32 µg/mL (≈ 98.3 µM) | 64 µg/mL (≈ 197 µM) | Active | 0.25 µg/mL (≈ 0.768 µM) | 0.5 µg/mL (≈ 1.54 µM) | 0.25 µg/mL (≈ 0.768 µM) | 256 µg/mL (≈ 787 µM) | 256 µg/mL (≈ 787 µM) | 1 µg/mL (≈ 3.07 µM) | < 3% | 16 µg/mL (≈ 49.2 µM) |  | 0.5 µg/mL (≈ 1.54 µM) |  |  |
| C=CCn1c2ccccc2c2c(OCc3nnn[nH]3)cccc21 | Active | 2 µg/mL (≈ 6.55 µM) | 64 µg/mL (≈ 210 µM) | 128 µg/mL (≈ 419 µM) | Active | 128 µg/mL (≈ 419 µM) | 1 µg/mL (≈ 3.28 µM) | 32 µg/mL (≈ 105 µM) | 0.5 µg/mL (≈ 1.64 µM) | 128 µg/mL (≈ 419 µM) | 4 µg/mL (≈ 13.1 µM) | < 3% | 64 µg/mL (≈ 210 µM) |  | 32 µg/mL (≈ 105 µM) |  | Activity (Cell membrane [18]): Active; Activity (Staphylococcus aureus [15]): Active; Activity (Cell membrane [19]): Active; Activity (HEK-293T): Non-Toxic; Activity (HeLa): Non-Toxic; Activity (Cell membrane [20]): Active; Activity (Cell membrane [21]): Active |
| CCn1c2ccccc2c2c(OCc3nnc(S)o3)cccc21 |  | 2 µg/mL (≈ 6.15 µM) | 4 µg/mL (≈ 12.3 µM) | 256 µg/mL (≈ 787 µM) |  | 8 µg/mL (≈ 24.6 µM) | 8 µg/mL (≈ 24.6 µM) | 8 µg/mL (≈ 24.6 µM) | 0.5 µg/mL (≈ 1.54 µM) | 256 µg/mL (≈ 787 µM) | 8 µg/mL (≈ 24.6 µM) |  | 4 µg/mL (≈ 12.3 µM) |  | 8 µg/mL (≈ 24.6 µM) | Active |  |
| C=CCn1c2ccccc2c2c(OCc3nnc(S)o3)cccc21 |  | 1 µg/mL (≈ 2.96 µM) | 4 µg/mL (≈ 11.9 µM) | 256 µg/mL (≈ 759 µM) |  | 8 µg/mL (≈ 23.7 µM) | 8 µg/mL (≈ 23.7 µM) | 8 µg/mL (≈ 23.7 µM) | 0.5 µg/mL (≈ 1.48 µM) | 256 µg/mL (≈ 759 µM) | 64 µg/mL (≈ 190 µM) |  | 4 µg/mL (≈ 11.9 µM) |  | 4 µg/mL (≈ 11.9 µM) | Active |  |
